# Key:
# [1] = system: GFP-Cbx1; assay: In vitro histone-tail peptide binding assay on GFP-multiTrap; set-up: species or system mouse; details: for Binding of GFP-Cbx1 to histone-tail peptide (binding ratios, Figure 2A): 0.15 µM TAMRA-labeled peptide per well, RT 20 min
# Experimental: In the next assay we determined whether this approach is also feasible to quantify binding affinities between GFP-proteins and peptides or DNA. First, we analyzed histone-tail peptide binding specificities of the chromobox homolog 1, Cbx1, fused with a N-terminal GFP-tag using the GFP-multiTrap. GFP-Cbx1 was purified from mammalian cell lysate, as described above, and the bound protein was incubated with TAMRA-labeled histone-tail peptides. A set of 20 different histone-tail peptides (Table 1) was used in technical triplicates in parallel and GFP served as negative control (GFP data is not shown). After removal of unbound substrate the amounts of protein and histone-tail peptide were determined by fluorescence intensity measurements using a micro plate reader. Binding ratios were calculated by dividing the concentration of bound histone-tail peptide by the concentration of GFP fusion (Figure 2A). […] In addition to fluorescent quantification via a micro plate reader, we scanned the TAMRA signals using a Typhoon scanner (Figure 2B). […] These differences could result from different sensitivities of both methods. […] We incubated GFP-Cbx1 with TAMRA-labeled H3K9me3 in parallel with either biotinylated H3K9me3 or H3K9ac histone-tail peptides. […] In contrast, we could not detect a significant difference in binding ratios between di- and trimethylated H3K9 histone tail peptides using a micro plate reader (Figure 2A). One explanation could be the use of different expression systems. While the binding ratios for the HP1β chromo domain were determined using bacterially expressed protein we used a fluorescent fusion protein derived from mammalian cells. […] To determine the binding affinity of GFP-Cbx1 to H3K9me3, we varied the input amount of histone-tail peptide. We plotted the amount of bound histone-tail peptide as a function of total peptide and fitted the values using GraphPad Prism and nonlinear regression (Figure 2D). The amount of bound H3K9me3 histone-tail peptide increases linearly and saturates at approximately 500 nM of input peptide. […] Here, the input amount of protein/substrate was measured in solution, whereas the bound fraction represents one value on the 96-well surface.
# For purification, 100 µL or 50 µL precleared cellular lysate for full-area plates or half-area plates, respectively, was added per well and incubated for 2 hours at 4°C on a GFP-multiTrap plate by continuous shaking. After removing the supernatant, wells were washed twice with 100 µL of washing buffer (WB; 20 mM Tris-HCl pH 7.5, 100–300 mM NaCl, 0.5 mM EDTA) and 100 µL of IP or dilution buffer was added for measurement. The amounts of bound protein were determined by fluorescence intensity measurements with a Tecan Infinite M1000 plate reader (Tecan, Austria). Wavelengths for excitation and emission of GFP are 490±10 nm and 511±10 nm, for RFP are 586±5 nm and 608±10 nm and for YFP 525±5 nm and 538±5 nm, respectively. The concentration of proteins was calculated using calibration curves that were determined by measuring the fluorescence signal of known concentrations of purified GFP, RFP and YFP. […] Bound proteins were eluted with 300 mM Glycin pH 2.5 and subsequently buffered with 1 M Tris pH 7.5. Elution fractions were added to SDS-containing sample buffer (referred to as Bound (B)). Bound proteins were visualized by immunoblotting using the anti-GFP mouse monoclonal antibody (Roche, Germany).
# The in vitro histone-tail binding assay was performed as described previously. After one-step purification of GFP fusion proteins the wells were blocked with 100 µL 3% milk solved in TBS-T (0.075% Tween) for 30 minutes at 4°C on a plate vortex, shaking gently. After blocking, the wells were equilibrated in 50 µL IP buffer supplemented with 0.05% Tween. […]
# [2] = target: HP1β chromo domain; details: bacterially expressed protein; ref [11], [12]; read-out: binding affinities; cited from earlier work
# [3] = target: GFP-Cbx1 (chromobox homolog 1 fused with an N-terminal GFP-tag) (mouse) (UniProt P83917); assay: GFP-multiTrap plate binding assay, fluorescence read-out; GFP fusion held on the GFP-multiTrap 96-well plate, blocked with 3% milk; 0.15 µM TAMRA-labeled histone-tail peptide, 20 min at RT, IP buffer (20 mM Tris-HCl pH 7.5, 150 mM NaCl, 0.5 mM EDTA) with 0.05% Tween; ratio of bound peptide over GFP fusion by plate reader
# [4] = system: GFP-Cbx1; assay: Competition assay between TAMRA-labeled H3K9me3 and biotinylated histone-tail peptides; assay type: binding, mouse; details: biotinylated peptide added in parallel; Figure 2C; three independent experiments; **P<0.003
# Experimental: In the next assay we determined whether this approach is also feasible to quantify binding affinities between GFP-proteins and peptides or DNA. First, we analyzed histone-tail peptide binding specificities of the chromobox homolog 1, Cbx1, fused with a N-terminal GFP-tag using the GFP-multiTrap. GFP-Cbx1 was purified from mammalian cell lysate, as described above, and the bound protein was incubated with TAMRA-labeled histone-tail peptides. A set of 20 different histone-tail peptides (Table 1) was used in technical triplicates in parallel and GFP served as negative control (GFP data is not shown). After removal of unbound substrate the amounts of protein and histone-tail peptide were determined by fluorescence intensity measurements using a micro plate reader. Binding ratios were calculated by dividing the concentration of bound histone-tail peptide by the concentration of GFP fusion (Figure 2A). […] In addition to fluorescent quantification via a micro plate reader, we scanned the TAMRA signals using a Typhoon scanner (Figure 2B). […] In contrast, we could not detect a significant difference in binding ratios between di- and trimethylated H3K9 histone tail peptides using a micro plate reader (Figure 2A). […] While the binding ratios for the HP1β chromo domain were determined using bacterially expressed protein we used a fluorescent fusion protein derived from mammalian cells. […]
# [5] = target: Cbx1 (UniProt P83917); assay: TAMRA-peptide binding to GFP-multiTrap-immobilised GFP-Cbx1; details: reference: H3K9me3 peptide; sites S10
# [6] = target: GFP-PBD (green fluorescent PCNA-binding domain of Dnmt1); assay: GFP-multiTrap plate binding assay, fluorescence read-out; GFP fusion held on the GFP-multiTrap plate, blocked with 3% milk, incubated with HEK293T cellular extract holding the RFP fusion for 30 min at RT; molar ratio of bound RFP fusion over GFP fusion by plate reader
# [7] = plate reader, three independent experiments
# Sequence of UniProt P83917 (P83917 whole entry, the tested form may be a part): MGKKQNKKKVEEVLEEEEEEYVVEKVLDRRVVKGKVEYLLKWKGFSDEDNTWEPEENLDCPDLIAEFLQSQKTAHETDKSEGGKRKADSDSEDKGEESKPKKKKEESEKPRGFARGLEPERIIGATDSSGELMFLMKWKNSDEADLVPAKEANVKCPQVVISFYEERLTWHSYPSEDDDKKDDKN
substance,measurement,setting,value
"ART K QTARKSTGGKAPRKQLK [H3 (1–20), TAMRA-labeled unmodified histone H3 tail peptide, residues 1–20]",Binding of Cbx1 with varied input amount of peptide (Figure 2D),"[1]; varied input of TAMRA-labeled peptide, plate reader, two independent experiments for H3",could not detect any binding
"ARTKQTAR X2 S TGGKAPRKQLK [H3K9me2, TAMRA-labeled histone H3 tail peptide, dimethylated Lysine 9]","Binding of GFP-Cbx1 to histone-tail peptide (binding ratios, Figure 2A)",[1]; [7],preferentially binds
same,TAMRA signals of bound peptide by Typhoon scanner (Figure 2B),[1]; fluorescence scanner,detected TAMRA signals
same,Kd,[2],7 µM
"ARTKQTAR X3 S TGGKAPRKQLK [H3K9me3, TAMRA-labeled histone H3 tail peptide, trimethylated Lysine 9]","Binding of GFP-Cbx1 to histone-tail peptide (binding ratios, Figure 2A)",[1]; [7],preferentially binds
same,TAMRA signals of bound peptide by Typhoon scanner (Figure 2B),[1]; fluorescence scanner,detected TAMRA signals
same,Preference in binding by fluorescence scanner,"[1]; fluorescence scanner, no difference seen with micro plate reader",preference for tri- over dimethylated H3K9
same,Input peptide at which bound histone-tail peptide saturates,"[1]; varied input of TAMRA-labeled peptide, Figure 2D, nonlinear regression, three independent experiments",approximately 500 nM
same,Kd,[2],2.5 µM
"ARTKQTAR X3 Z2 TGGKAPRKQLK [H3K9me3S10p, TAMRA-labeled H3 tail peptide, trimethylated Lysine 9 and phosphorylated Serine 10]","Binding of GFP-Cbx1 to histone-tail peptide (binding ratios, Figure 2A)",[1]; [7],prevents binding
"H3 (1–20) histone-tail peptide, TAMRA-labeled",relative binding ratio (substrate/GFP fusion),[3],0.0772
"H3K9me3 histone-tail peptide, TAMRA-labeled",relative binding ratio (substrate/GFP fusion),[3],0.572
biotinylated H3K9ac: biotinylated H3K9ac histone-tail peptide used as competitor,Effect of competitor on binding of Cbx1 to TAMRA-labeled H3K9me3,[4],did not alter
biotinylated H3K9me3: biotinylated H3K9me3 histone-tail peptide used as competitor,Effect of competitor on binding of Cbx1 to TAMRA-labeled H3K9me3,[4],significantly decreased
histone H3 1-20 (from UniProt P68431) H3K9me3S10p peptide,binding against the reference,[5],lost
mRFP,relative binding ratio (substrate/GFP fusion),[6],0.005
